Measured values as given in ChEMBL document CHEMBL1128852, “Butyrophenone analogues: Synthesis of 2-methyl-3-ethyl-5-aminoethyl-4,5,6,7-tetrahydroindol-4-ones, and their affinities for d1, d2 and 5-ht2a receptors” (Bioorg Med Chem Lett, 1995).

Assays:
[1] = biological target: 5-hydroxytryptamine receptor 2A (Rattus norvegicus, UniProt P14842); test: Inhibition constant for in vitro inhibition of [3H]ketanserin binding to rat frontal cortex membranes 5-hydroxytryptamine 2A receptor; type: cell membranes, Membrane
Chain of 5-hydroxytryptamine receptor 2A (P14842 whole entry): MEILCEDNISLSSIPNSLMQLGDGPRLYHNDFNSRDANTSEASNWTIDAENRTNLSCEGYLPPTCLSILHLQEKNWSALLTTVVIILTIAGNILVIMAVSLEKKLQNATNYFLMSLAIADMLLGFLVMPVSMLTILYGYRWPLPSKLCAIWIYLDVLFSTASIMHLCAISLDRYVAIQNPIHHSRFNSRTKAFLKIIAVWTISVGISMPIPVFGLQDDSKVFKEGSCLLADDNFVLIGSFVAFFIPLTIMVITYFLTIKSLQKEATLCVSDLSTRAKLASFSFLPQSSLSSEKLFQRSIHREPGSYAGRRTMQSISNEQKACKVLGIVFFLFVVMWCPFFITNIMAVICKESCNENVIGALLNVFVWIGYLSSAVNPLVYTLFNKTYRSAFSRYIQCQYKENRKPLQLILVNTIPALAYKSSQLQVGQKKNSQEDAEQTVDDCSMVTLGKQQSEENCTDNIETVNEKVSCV

[2] = biological target: D(1A) dopamine receptor (Rattus norvegicus, UniProt P18901); test: Inhibition constant for in vitro inhibition of [3H]-SCH- 23390 binding to striatal membranes Dopamine receptor D1; parameters: species or system Striatum, Membrane
Chain of D(1A) dopamine receptor (P18901 whole entry): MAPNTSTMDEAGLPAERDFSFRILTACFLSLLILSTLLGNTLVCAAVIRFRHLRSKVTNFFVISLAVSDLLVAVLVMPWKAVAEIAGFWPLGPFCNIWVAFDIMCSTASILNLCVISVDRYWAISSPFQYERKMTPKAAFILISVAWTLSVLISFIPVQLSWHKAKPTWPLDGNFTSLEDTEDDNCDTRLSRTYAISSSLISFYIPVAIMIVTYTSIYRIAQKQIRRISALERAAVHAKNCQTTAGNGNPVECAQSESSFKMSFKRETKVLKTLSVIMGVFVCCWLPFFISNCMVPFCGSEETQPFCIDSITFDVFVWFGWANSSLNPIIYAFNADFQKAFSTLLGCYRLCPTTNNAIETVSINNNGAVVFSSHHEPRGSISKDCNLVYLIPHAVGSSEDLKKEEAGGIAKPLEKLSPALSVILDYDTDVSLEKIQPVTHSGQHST

[3] = species: Rattus norvegicus; test: (§1) Competitive antagonism against serotonin-induced contractions in rat aorta ring stripped of endothelium; type: functional; conditions: read-out: pA2 (converted)
[4] = biological target: D(2) dopamine receptor (Rattus norvegicus, UniProt P61169); test: Inhibition constant for in vitro inhibition of [3H]spiperone binding to striatal membranes Dopamine receptor D2
Chain of D(2) dopamine receptor (P61169 whole entry): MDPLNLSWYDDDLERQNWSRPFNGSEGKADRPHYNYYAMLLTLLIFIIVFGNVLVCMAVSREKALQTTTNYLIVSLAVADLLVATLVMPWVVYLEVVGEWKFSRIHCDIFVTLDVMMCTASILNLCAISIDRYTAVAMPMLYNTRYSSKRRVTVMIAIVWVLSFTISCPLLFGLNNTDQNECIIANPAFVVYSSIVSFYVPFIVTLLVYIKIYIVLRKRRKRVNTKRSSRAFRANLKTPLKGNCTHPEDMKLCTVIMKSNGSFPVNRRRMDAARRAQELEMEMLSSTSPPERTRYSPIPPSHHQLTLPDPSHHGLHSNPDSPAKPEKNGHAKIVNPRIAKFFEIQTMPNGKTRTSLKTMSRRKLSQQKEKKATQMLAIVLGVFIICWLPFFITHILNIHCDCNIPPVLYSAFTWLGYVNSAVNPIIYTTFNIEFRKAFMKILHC

[5] = species: Rattus norvegicus; test: as §1; conditions: read-out: pA2 (converted)

Ki [1] [µM] | Ki [2] [µM] | Ki [4] [µM] | Compound | Kb [3] [µM] | Kb [5] [µM]
0.0912 | 1.17 | 0.0282 | CCc1c(C)[nH]c2c1C(=O)C(CCN1CCN(c3ccccc3OC)CC1)CC2 (centres undefined) | 0.0316 | 
0.912 | 2.14 | 0.589 | CCc1c(C)[nH]c2c1C(=O)C(CCN1CCOCC1)CC2 (centres undefined) |  | 0.105
 | 1.58 |  | CCc1c(C)[nH]c2c1C(=O)C(CN1CCOCC1)CC2 (centres undefined) [MOLINDONE] |  | 
